Test results taken from US8883077B2, “Disinfecting, nonbleaching N-halamine for use with contact lens” (Auburn University, priority 2010, dated 2014).
Values after ≈ are worked out from the molar mass of the structure shown.

What was measured:
[1] = Solubility in water at 22° C.; assay type: physicochemical
Excerpt: Both of the N-chloramine compounds mentioned above are able to easily be synthesized using methods known to those of skill in the art. Aqueous solutions of the un-halogenated amine precursor for either compound may be simply exposed to a dilute aqueous solution of household bleach (e.g., sodium hypochlorite) or sodium chlorite or by bubbling in chlorine gas to form the N-chloramine. For example, compound 1 has been prepared by Worley, et al., by using chlorine gas to react with an aqueous alkaline solution of the precursor amine (see Tsao, et al., “Novel N-Halamine Disinfectant Compounds”, Biotechnol. Prog. 1991, 7, 60 or Worley, et al., U.S. Pat. No. 5,057,612). It can also be purchased commercially from the HaloSource Corporation in Bothell, Wash. The precursor 2,2,5,5-tetramethyl-4-imidazolidinone is able to be prepared according to the method outlined in Tsao, et al., “Novel N-Halamine Disinfectant Compounds”, Biotechnol. Prog. 1991, 7, 60 or Worley, et al., U.S. Pat. No. 5,057,612. Compound 2 is able to be prepared by reaction of commercial (Aldrich Chemical Company, Milwaukee, Wis.) 2,2,6,6-tetramethyl-4-piperidinol with dilute household bleach. […] Pure compounds 1 and 2 contain 20.1 and 18.5 percent by weight oxidative chlorine, respectively. Their solubilities in water at 22° C. are 1930 and 6815 mg/L, respectively. […]

[2] = test system: Staphylococcus aureus (ATCC 25923); experiment: Disinfection efficacy in aqueous solution (colony counts after thiosulfate quench); assay type: cell-based; conditions: 5 mg/L total chlorine (25 mg/L compound)
Description: The antimicrobial efficacy of compound 1 was evaluated against the pathogen Staphylococcus aureus (ATCC 25923) in aqueous solution at 22° C. and pH values of 4.5, 7.0, and 9.5. Solutions containing about 1×10^6 colony forming units (CFU) per mL final cell densities of bacteria were prepared and treated with compound 1 at a concentration of 5 mg/L total chlorine concentration (25 mg/L compound concentration). Aliquots were removed at predetermined contact times and quenched with sterile 0.02 N sodium thiosulfate to terminate disinfection action. Then serial dilutions were made into sterile saline solution, and 25 μL aliquots of each dilution were applied to the dried surface of a Petri dish containing tryptic soy agar. After 48 hours of incubation at 37° C., colony counts for each dilution were made. The results of three replicates were averaged. Control samples containing no disinfectant were handled in the same manner. Inactivation of the pathogen was considered to be at least 99.9999% (6 logs) when no viable colonies were detected in the thiosulfate-quenched aliquots.

[3] = Stability in aqueous solution and in Unisol 4 contact lens soak (iodometric/thiosulfate titration); assay type: physicochemical
Description: The stabilities of compound 1 in aqueous solution and in a contact lens soak formulation (Unisol 4 manufactured by Alcon Laboratories, Inc.) were determined at 22° C. by using the standard iodometric/thiosulfate titration procedure. In water buffered to pH 7.0 at 22° C., the compound at a starting concentration of 10 mg/L total chlorine lost less than 5% of its oxidative chlorine over a storage period of 50 days. In about 4 mL of Unisol 4 at a starting concentration of about 20 mg/L total chlorine in the presence of an ACUVUE 2 contact lens (manufactured by Johnson & Johnson Vision Care, Inc.) in a lens holder manufactured by Alcon Laboratories, Inc., the loss of oxidative chlorine over 60 days was about 21%. In contrast, in an analogous experiment with compound 2 in the Unisol 4, the loss was about 54% over just 30 days.

Structure (SMILES) | solubility [1] [µg/mL] | contact time required for 99.9999% inactivation ([2]; pH 4.5, 22° C.) [min] | inactivation after 10 minutes contact ([2]; pH 4.5, 22° C., about 1×10^6 CFU/mL) [%] | contact time required for 99.9999% inactivation ([2]; pH 7.0, 22° C.) [min] | inactivation after 10 minutes contact time ([2]; pH 7.0, 22° C., about 1×10^6 CFU/mL) [%] | contact time required for 99.9999% inactivation ([2]; pH 9.5, 22° C.) [min] | inactivation after 10 minutes contact time ([2]; pH 9.5, 22° C., about 1×10^6 CFU/mL) [%] | loss of oxidative chlorine ([3]; about 4 mL Unisol 4 with ACUVUE 2 contact lens, starting about 20 mg/L total chlorine, 60 days) | loss of oxidative chlorine ([3]; water buffered to pH 7.0, 22° C., starting 10 mg/L total chlorine, storage 50 days) | loss of oxidative chlorine ([3]; Unisol 4 with ACUVUE 2 contact lens, analogous experiment, 30 days)
CC1(C)NC(=O)C(C)(C)N1Cl [compound 1, 1-chloro-2,2,5,5-tetramethyl-4-imidazolidinone] | 1930 (≈ 10.9 mM) | 60 | 96 | 588 | 4.4 | 454 | 50 | about 21% | less than 5% | –
CC1(C)CC(O)CC(C)(C)N1Cl [compound 2, 1-chloro-2,2,6,6-tetramethyl-4-piperidinol, reference compound] | 6820 (≈ 35.5 mM) | – | – | – | – | – | – | – | – | about 54%
